From publication PMC6050298, “Highly active enzymes by automated combinatorial backbone assembly and sequence design” (Nature Communications, 2018)

Legend:
[1] = molecular target: T1, GH10 from S. lividans (PDB ID 1E0V) (Streptomyces lividans, UniProt P26514); test: 4-nitrophenol release, […] nm; type: biochemical; conditions: 37 °C, 50 mM Tris pH 6.5, 150 mM NaCl; MBP fusion
T1 construct: gene xlnA; synthetic codon-optimised gene, N-terminal His6-MBP fusion kept in assay, E. coli BL21 DE3; probably catalytic domain as in 1E0V
T1 sequence (P26514 42-354): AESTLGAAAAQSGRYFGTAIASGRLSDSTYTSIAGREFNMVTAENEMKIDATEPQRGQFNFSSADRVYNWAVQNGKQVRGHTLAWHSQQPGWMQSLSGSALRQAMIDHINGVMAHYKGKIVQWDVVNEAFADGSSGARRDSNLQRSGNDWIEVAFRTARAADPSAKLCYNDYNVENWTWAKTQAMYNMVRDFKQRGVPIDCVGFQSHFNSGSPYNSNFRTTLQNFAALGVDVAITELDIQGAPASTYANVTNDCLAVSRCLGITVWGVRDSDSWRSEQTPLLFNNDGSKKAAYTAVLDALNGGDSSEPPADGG

[2] = tested on: T2, xyl3.2; test: 4-nitrophenol release, […] nm, Michaelis-Menten fit; type: biochemical, synthetic construct; conditions: 37 °C, 50 mM Tris pH 6.5, 150 mM NaCl; MBP fusion
T2 construct: computational design (112 mutations to nearest natural protein), N-terminal His6-MBP fusion kept

[3] = tested on: T3, pll2.4; type: biochemical, synthetic construct
T3 construct: computational design (60 mutations to nearest natural protein), N-terminal His6-MBP fusion kept

[4] = tested on: T4, pll2.2; type: biochemical, synthetic construct
T4 construct: computational design (54 mutations to nearest natural protein), N-terminal His6-MBP fusion kept

[5] = tested on: T5, pll4.1; type: biochemical, synthetic construct
T5 construct: computational design (85 mutations to nearest natural protein), N-terminal His6-MBP fusion kept

Row | Km [2] [µM] | SMILES | kcat/KM [1] | Km [3] [µM] | Km [4] [µM] | Km [5] [µM]
1 | 160 ± 20 | O=[N+]([O-])c1ccc(O[C@@H]2OC[C@@H](O[C@@H]3OC[C@@H](O)[C@H](O)[C@H]3O)[C@H](O)[C@H]2O)cc1 [4-nitrophenyl β-xylobioside] | Catalytic efficiency of GH10 designs with OPNPX2 compared to natural GH10 enzymes | – | – | –
2 | – | CCCCSC1CCC(=O)O1 (centres unmarked) [5-thiobutyl butyrolactone] | – | 82 | 180 | 350
